Data set [1] has as its system BIK. Description: BIK protein induction under stress conditions (Western blot). It is filed as cell-based, human. The text has this: (§1) Cell lines and culture conditions. The estrogen-dependent cell line MCF-7/BUS was provided by A. M. Soto (Tufts University, Medford, Mass.) and has been described (Soto et al., Environ. Health Perspect. 103:113-22 (1995)). The human embryonic kidney 293T cells and MCF-7/BUS cells were maintained in DMEM supplemented with 10% fetal bovine serum. Estrogen starvation of MCF-7/BUS cells was done as described (Hur et al., PNAS 101:2351-6 (2004)). Briefly, the cells were washed thrice with phenol red-free DMEM and incubated in washing medium at 37° C. for 60 minutes. The MCF-7/BUS cells were then cultured in phenol red-free DMEM supplemented with 5% charcoal/dextran-stripped fetal bovine serum for 24 to 72 hours as indicated. For etoposide treatment, the cells were incubated with 50 μmol/L etoposide for 6 hours and cultured for another 24 hours before harvest.
(§2) Western blots and quantitation. The Western blots were done as described (Lee, Methods 35:373-81 (2005)). The primary antibodies were goat anti-BIK (N-19, Santa Cruz Biotechnology, Santa Cruz, Calif.), rat anti-Grp78 (76-E6, Santa Cruz Biotechnology), rat anti-GRP94, rabbit anti-calnexin, rabbit anti-calreticulin (Stressgen, Ann Arbor, Mich.), mouse anti-Flag M2, mouse anti-poly(ADP-ribose) polymerase (PARP; F-2, Santa Cruz Biotechnology, Santa Cruz, Calif.), and mouse anti-h-actin (Sigma-Aldrich, St. Louis, Mo.). Anti-h-actin was diluted at 1:2,000; anti-BIK at 1:500; and other antibodies at 1:1,000. Respective horseradish peroxidase-conjugated secondary antibodies (Santa Cruz Biotechnology, Santa Cruz, Calif.) at 1:1,000 dilution were used. The Western blots were quantitated by Fluor-S® MultiImager (Bio-Rad, Hercules, Calif.) according to the manufacturer's instructions. All quantitations were normalized against h-actin.

Data set [2] concerns the target Flag-tagged BIK-b5TM (UniProt Q13323). Description: cell-based or functional assay.
Data set [3] addresses endogenous BIK (human) (UniProt Q13323). The data set is described as follows: cell-based or functional assay.
Data set [4] concerns PARP. Description: PARP cleavage by Western blot in estrogen-starved cells. The conditions noted are these: MCF-7/BUS cells, estrogen starvation; for PARP cleavage: vs control siRNA. It is filed as cell-based, human. As for the experimental part:
In FIG. 8A, cell lysates from MCF-7/BUS cells transfected with siGrp78 oligomers or control siRNA (siCtrl) for 24 hours and subsequently cultured in regular or estrogen-free medium (ES) for 24 hours were subjected to SDS-PAGE and Western blotting to probe for levels of GRP78, GRP94 and β-actin. In FIG. 8B, MCF-7/BUS cells were cultured either in regular or in estrogen-free (ES) medium for 24 hours after transfection of siGrp78 or siCtrl as indicated. The percent of apoptotic cells was assessed by mitochondrial membrane potential staining. The standard errors are indicated. In FIG. 8C, MCF-7/BUS cells were transfected with control siRNA, siGrp78, or siBik, alone or in combination as indicated for 24 hours and then cultured in ES medium for 24 hours. The total amount of siRNA in each condition was adjusted to be the same by addition of siCtrl. Cell lysates were collected and subjected to SDS-PAGE and probed for levels of GRP78, BIK and β-actin by Western blotting. In FIG. 8D, cell lysates from FIG. 8C were subjected to SDS-PAGE and Western blotted with anti-PARP antibody. The Western signal of full-length PARP and apoptosis-signature fragment were quantitated by Fluor-S™ MultiImager (Bio-Rad, Hercules, Calif.). The relative PARP cleavages are shown with the PARP cleavage in cells transfected with control siRNA set as 1. Columns in FIGS. 8B and 8D represent the mean from three or two experiments, respectively. Standard error: * p<0.05, ** p<0.01.
Cell lines and culture conditions. The estrogen-dependent cell line MCF-7/BUS was provided by A. M. Soto (Tufts University, Medford, Mass.) and has been described (Soto et al., Environ. Health Perspect. 103:113-22 (1995)). The human embryonic kidney 293T cells and MCF-7/BUS cells were maintained in DMEM supplemented with 10% fetal bovine serum. […]
Western blots and quantitation. […] The Western blots were quantitated by Fluor-S® MultiImager (Bio-Rad, Hercules, Calif.) according to the manufacturer's instructions. All quantitations were normalized against h-actin.
(Immunoblotting shows a protein as a band on a membrane.)

Data set [5] concerns BIK. Description: siRNA knockdown in MCF-7/BUS cells, Western blot for BIK. The conditions noted are these: estrogen starvation, vs control siRNA. In kind it is cell-based, human.
Source text: as §2
(§3) Small interfering RNA. The siRNA against Grp78 is 5′-gagcgcauugauacuagadTdT-3′ (SEQ ID NO:1) as described (Tsutsumi et al., Oncogene 25:1018-29 (2006)). The siRNA against Bik is 5′-[…]-3′ (SEQ ID NO:2) (Hur et al., PNAS 101:2351-6 (2004)). The control siRNA is Silencer Negative Control #3 siRNA (Ambion, Foster City, Calif.) composed of a 19-bp scrambled sequence without significant homology to any known gene sequences from mouse, rat, or human. […]

The subject of data set [6] is GRP78. Description: siRNA knockdown in MCF-7/BUS cells, Western blot for Grp78. The following applies: transient transfection, vs control siRNA. It is filed as cell-based, human.
Source text: as §2, §3

The subject of data set [7] is MCF-7/BUS cells. Description: Mitochondrial membrane potential staining (apoptosis). It is filed as cell-based, human.
Source text: as §1
For construction of the adenovirus expression vectors, either GFP or a His-tagged full-length hamster Grp78 cDNA was subcloned into an adenoviral vector and its expression was driven by the cytomegalovirus promoter. […] For mitochondrial membrane potential staining, because GFP interferes with the green fluorescence of this assay, the adenovirus empty vector was used as the negative control. […]
Cell death and apoptotic assays. […] The cell cultures were then washed with PBS and examined under a fluorescence microscope. […]

The subject of data set [8] is GRP94. Description: siRNA knockdown in MCF-7/BUS cells, Western blot for GRP94. It is filed as cell-based, human. The following applies: transient transfection.
Source text: as §2, §3

In data set [9] the target is T1, calreticulin (human, UniProt P27797 18-417).
T1 sequence (looked up): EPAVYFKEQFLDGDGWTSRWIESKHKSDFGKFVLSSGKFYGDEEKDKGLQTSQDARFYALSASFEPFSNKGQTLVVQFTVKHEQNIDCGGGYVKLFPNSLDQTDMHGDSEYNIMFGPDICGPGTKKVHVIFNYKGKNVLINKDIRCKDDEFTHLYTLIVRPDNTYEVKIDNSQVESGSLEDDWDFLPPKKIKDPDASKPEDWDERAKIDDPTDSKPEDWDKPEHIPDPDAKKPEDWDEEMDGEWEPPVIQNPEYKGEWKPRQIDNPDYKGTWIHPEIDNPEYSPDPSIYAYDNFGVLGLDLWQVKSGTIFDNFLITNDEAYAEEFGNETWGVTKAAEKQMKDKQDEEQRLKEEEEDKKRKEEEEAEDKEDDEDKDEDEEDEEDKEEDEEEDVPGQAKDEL
Description: co-immunoprecipitation with anti-BIK from 293T lysate, Western blot. As for the experimental part: (§4) FIGS. 5A to 5D show selective association of endogenous BIK with GRP78. In FIG. 5A, 293T cells were either non-treated or treated with 50 μM etoposide (Etop) for 6 hours and were harvested 24 hours later. MCF-7/BUS cells were cultured either in regular DMEM or in estrogen-free DMEM for 48 hours. Western blots of total protein lysates from these cells were performed with antibodies against BIK and β-actin. In FIG. 5B, cell lysates prepared from control and Etop-treated 293T cells were immunoprecipitated with anti-BIK or normal IgG The immunoprecipitates were applied in parallel with input lysates to SDS-PAGE and Western blotted with antibodies against GRP78, GRP94, calnexin, calreticulin and BIK. […] In FIG. 5D, lysates of 293T cells were incubated with GST-GRP78, GST-BIK, or GST linked beads. The bound proteins were resolved by SDS-PAGE and probed for GRP78 or BIK by Western blotting.
(§5) Communoprecipitation assays. The coimmunoprecipitation assays were done as described (Reddy et al., J. Biol. Chem. 278:20915-24 (2003)). Briefly, 500 μg of total protein extract from each sample were pretreated with protein G-Sepharose beads (Upstate, Chicago, Ill.), followed by incubation with 5 Ag of goat anti-BIK antibody (N-19, Santa Cruz Biotechnology, Santa Cruz, Calif.) or mouse anti-Flag M2 antibody (Sigma-Aldrich, St. Louis, Mo.). For negative controls, the respective goat or mouse immunoglobulin G (IgG; Santa Cruz Biotechnology, Santa Cruz, Calif.) was used.

Data set [10] deals with GRP94 (human, UniProt P14625 22-803). The description is as above. Here is the method: as §4, §5
Data set [11] deals with T2, calnexin (human, UniProt P27824 21-592).
T2 sequence (looked up): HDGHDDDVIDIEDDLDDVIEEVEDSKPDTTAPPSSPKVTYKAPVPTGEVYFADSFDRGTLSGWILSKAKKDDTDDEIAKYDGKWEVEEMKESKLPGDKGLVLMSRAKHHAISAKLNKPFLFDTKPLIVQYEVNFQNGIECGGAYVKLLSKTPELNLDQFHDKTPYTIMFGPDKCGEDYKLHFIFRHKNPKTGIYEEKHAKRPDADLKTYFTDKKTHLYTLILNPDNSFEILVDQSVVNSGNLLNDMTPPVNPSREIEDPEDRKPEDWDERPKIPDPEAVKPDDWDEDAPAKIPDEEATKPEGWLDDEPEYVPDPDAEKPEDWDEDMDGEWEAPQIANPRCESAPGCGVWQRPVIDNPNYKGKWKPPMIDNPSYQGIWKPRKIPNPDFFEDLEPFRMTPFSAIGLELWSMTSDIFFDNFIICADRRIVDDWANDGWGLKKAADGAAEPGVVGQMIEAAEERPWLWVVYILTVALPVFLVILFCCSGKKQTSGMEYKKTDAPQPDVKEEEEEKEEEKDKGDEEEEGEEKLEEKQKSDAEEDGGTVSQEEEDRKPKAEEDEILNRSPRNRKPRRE
The description is as above. Here is the method:
as §4, §5

The target in data set [12] is T3, GST protein (UniProt P08515 1-218 = GST).
T3 construct: Negative control in the pull-down assays; also called Glutathione S-transferase
The data set is described as follows: GST pull-down from 293T total cell extract, Western blot. As for the experimental part: as §4
Glutathione S-transferase pull-down assays. Glutathione S-transferase (GST)-Grp78 and GST-BIK were constructed by subcloning full-length hamster Grp78 cDNA and human BIK into the BamH1/XhoI and BamH1/Sal1 sites of pGEX 4T1, respectively (Pharmacia Biotech, Piscataway, N.J.). Conditions for the GST pull-down assays have been described (Wu and Lee, Nucleic Acids Res. 26:4837-45 (1998)) with the following modifications. […]

This note sets out measurements from patent publication US20100015128A1, “GRP78 as a Predictor of Responsiveness to Therapeutic Agents” (UNIVERSITY OF SOUTHERN CALIFORNIA, priority 2006, published 2010).

d = 2'-deoxy (DNA); r = 2'-OH (RNA)

T3 sequence (P08515 whole entry): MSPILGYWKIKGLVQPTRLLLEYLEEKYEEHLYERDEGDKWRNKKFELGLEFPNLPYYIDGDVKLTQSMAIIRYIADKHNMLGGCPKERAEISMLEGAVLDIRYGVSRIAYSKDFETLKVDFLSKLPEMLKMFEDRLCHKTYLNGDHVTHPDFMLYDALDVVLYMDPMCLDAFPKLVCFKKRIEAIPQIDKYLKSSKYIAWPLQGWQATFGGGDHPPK
Sequence of GRP94 (human, UniProt P14625 22-803) (P14625 22-803 limits assumed): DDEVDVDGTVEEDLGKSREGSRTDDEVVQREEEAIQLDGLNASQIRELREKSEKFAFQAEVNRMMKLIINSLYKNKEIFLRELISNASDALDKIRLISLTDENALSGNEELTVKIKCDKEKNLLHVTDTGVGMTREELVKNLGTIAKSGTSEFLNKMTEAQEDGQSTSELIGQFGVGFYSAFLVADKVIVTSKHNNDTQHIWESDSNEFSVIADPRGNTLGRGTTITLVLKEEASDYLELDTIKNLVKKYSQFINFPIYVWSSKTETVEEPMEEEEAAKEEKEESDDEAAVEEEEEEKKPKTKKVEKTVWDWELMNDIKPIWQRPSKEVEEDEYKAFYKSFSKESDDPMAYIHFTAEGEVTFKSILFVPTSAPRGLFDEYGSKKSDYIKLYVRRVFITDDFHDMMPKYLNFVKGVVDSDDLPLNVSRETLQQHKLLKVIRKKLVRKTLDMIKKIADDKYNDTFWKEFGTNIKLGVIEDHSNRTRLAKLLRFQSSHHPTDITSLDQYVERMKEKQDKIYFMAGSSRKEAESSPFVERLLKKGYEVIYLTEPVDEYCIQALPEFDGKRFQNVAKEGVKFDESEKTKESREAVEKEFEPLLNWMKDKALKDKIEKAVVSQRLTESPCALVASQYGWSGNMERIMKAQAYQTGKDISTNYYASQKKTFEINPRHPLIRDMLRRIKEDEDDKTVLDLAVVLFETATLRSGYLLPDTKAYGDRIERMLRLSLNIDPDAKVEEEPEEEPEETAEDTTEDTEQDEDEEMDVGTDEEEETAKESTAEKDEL

Turning to `COc1cc([C@@H]2c3cc4c(cc3[C@@H](O[C@@H]3O[C@@H]5CO[C@@H](C)O[C@H]5[C@H](O)[C@H]3O)[C@H]3COC(=O)[C@H]23)OCO4)cc(OC)c1O` [etoposide], in [1] (293T cells, 50 μmol/L etoposide 6 hours, harvested 24 hours later), the “level of BIK protein” value is on record as “substantially elevated”.

For His-tagged Grp78, in data set [2], the fold decrease in apoptosis (mitochondrial membrane potential staining) in transfected 293T cells was 3 fold.

“His-tagged full-length hamster Grp78 (Ad-Grp78) (from UniProt P07823 19-654)” returned a decrease in BAX activation by estrogen starvation (FACS with BAX conformation specific antibody) in MCF-7/BUS cells in data set [3] of 48%.

For “siRNA against Bik: siRNA 5′-aagaccccucuccagagacau-3′ (SEQ ID NO:2) (AAGACCCCUCUCCAGAGACAU; RNA, backbone not given here)”, the “enhanced PARP cleavage mediated by knockdown of Grp78” value in data set [4] (BIK knockdown combined with Grp78 knockdown) is “substantially reduced”. The PARP cleavage result in [4] is on record as “decreased”. The “expression of BIK protein” value in data set [5] was “substantially reduced”.

As to “siRNA against Grp78: siRNA 5′-gagcgcauugauacuagadTdT-3′ (SEQ ID NO:1) (guide GAGCGCAUUGAUACUAGATT; sugars from the 5' end r18 d2, backbone not given here)”, the PARP cleavage entry in data set [4] is “increased”. Moreover, the “level of Grp78 protein” value in [6] is on record as “substantially reduced”. Moreover, the “effect on mitochondrial membrane potential” value in data set [7] (MCF-7/BUS cells in normal culture medium) is given as “little effect”. In data set [7] (MCF-7/BUS cells, estrogen starvation 24 hours, vs control siRNA), the apoptosis entry is on record as “marked increase”. The “expression of GRP94” value in data set [8] is on record as “no effect”.

In the case of tunicamycin, the “induction of BIK by ER stress inducers” value in data set [1] (human cells) was “do not induce”.

B1: endogenous BIK (other, human, UniProt Q13323 1-160, looked up)
chain: MSEVRPLSRDILMETLLYEQLLEPPTMEVLGMTDSEEDLDPMEDFDSLECMEGSDALALRLACIGDEMDVSLRAPRLAQLSEVAMHSLGLAFIYDQTEDIRDVLRSFMDGFTTLKENIMRFWRSPNPGSWVSCEQVLLALLLLLALLLPLLSGGLHLLLK
notes: Endogenous protein from total cell extract of the human cell line 293T, untreated or etoposide-treated; also called BIK protein
For the molecule B1, the binding result in [9], in data set [10], in data set [11] and in [12] was “no binding” each time.
